These results are taken from paper PMC3669024, “Pharmacological Characterization of a 5-HT1-Type Serotonin Receptor in the Red Flour Beetle, Tribolium castaneum” (PLoS ONE, 2013).

What all share (format): cell-based
Assay [1] addresses T1, Trica5-HT1 (Tribolium castaneum, UniProt R9ULB8). The assay can be described thus: CRE-luciferase reporter-gene assay, NKH-477 stimulated cAMP in HEK293 cells expressing Trica5-HT1. The settings on record: for IC50: NKH-477 stimulated cAMP. On the procedure:
(§1) General binding studies were performed in Chinese hamster ovary (CHO) WTA11 cells stably coexpressing apoaequorin and the promiscuous Gα16. This allowed us to measure the pharmacology independent of the downstream signaling. CHO-PAM28 cells stably expressing apoaequorin, but not the promiscuous Gα16, and human embryonic kidney cells (HEK) 293 cells were used to measure downstream signaling via Ca^2+ and cAMP, respectively. CHO cell lines were provided by Prof. Marc Parmentier (University of Brussels, Belgium) and Dr. Michel Detheux (Euroscreen S.A., Belgium). HEK293 cells were a gift from Prof. Arnd Baumann (Research Centre Jülich, Germany.
(§2) Cells were cultured in vitro as monolayers at 37°C, 5% CO2 and high relative humidity, and subcultivated twice a week. For transfection of CHO cells, 2.5 ml Opti-MEM®I (Invitrogen), 5 µg plasmid DNA and 12.5 µl Plus^TMreagent (Invitrogen) were mixed, stored at room temperature for 5 min and next repleted with 30 µl Lipofectamine™LTX (Invitrogen). After 30 min incubation at room temperature, this transfection mixture was added dropwise to the cells together with 5 ml medium. HEK293 cells were cotransfected with receptor construct (4 µg) and CRE-luciferase construct (2 µg), consisting of the open reading frame of the reporter gene, luciferase, downstream of a multimerized cAMP-response-element (CRE6x), [39]. All transfections were performed in T75 flasks with a confluency of about 60 percent. Cells were grown overnight, after which 15 ml of medium was added for an additional overnight incubation period.
Cotransfected HEK293 cells were detached and the amount of viable cells was determined as described for CHO cells. Cells were pelleted for 4 min at 800 rpm at room temperature and resuspended in DMEM/F12 medium (without phenol red, with L-glutamine and 10 mM HEPES) containing 200 µM 3-isobutyl-1-methylxanthine (IBMX, Sigma-Aldrich) to a concentration of 10^6 cells/ml. The pharmacological ligands were dissolved in DMEM/F12 medium without phenol red containing 200 µM IBMX. The water-soluble forskolin analog NKH-477 was added to a concentration of 20 µM to measure Trica5-ht1-mediated effects on cellular cAMP signaling. In each well of a 96-well plate, 50 µl of ligand suspension and 50 µl of cell suspension were dispensed. […] Light emission was measured for 5 s per well using a Mithras LB940 (Berthold Technologies). […] Data were analyzed as described for CHO cells.
CHO-PAM28 and HEK293 cells were used to determine the downstream signaling pathway of Trica5-HT1. […] Relative high variation in the data can be explained by assay based variation since cells were not counted when dispensed. […]
On the technique in general: In a reporter assay the amount or activity of a reporter protein is the signal.

In assay [2] the target is T1, Trica5-HT1. The assay can be described thus: Aequorin-luminescence assay, agonist activation of Trica5-HT1 in CHO-WTA11 cells (apoaequorin + Gα16). On the procedure:
as §1, §2
The transfected CHO cells were detached with phosphate buffered saline (PBS) containing 0.2% EDTA and collected in DMEM/F-12 (without phenol red, with L-glutamine and 10 mM HEPES) (Gibco). The amount of viable cells was determined using the NucleoCounter NC-100+TM (Chemometic). Cells were pelleted for 4 min at 800 rpm at room temperature and resuspended in BSA-medium (DMEM/F12 without phenol red, with L-glutamine and 10 mM HEPES, supplemented with 0.1% bovine serum albumin) to a concentration of 5×10^6 cells/ml. Coelenterazine H (Invitrogen) was added to a final concentration of 5 µM, and cells were gently shaken for 4 h at room temperature in the dark. After a 10-fold dilution in BSA-medium, cells were incubated another 30 min. The pharmacological ligands were dissolved in BSA-medium. For agonists, 50 µl containing the final ligand concentration was added to appropriate wells of a 96-well plate. For antagonists, 25 µl of the antagonist solution was supplemented with 25 µl of a 5-HT solution. Receptor activity was measured as the light emission after adding 50 µl of the cell suspension. Light emission was measured for 30 s using a Mithras LB940 (Berthold Technologies). Subsequently, cells were lysed with Triton X-100 (0.1% in BSA-medium) and light emission was recorded for another 8 s. BSA-medium was used as a negative control. Light emission from each well was calculated relative to the total response (ligand+Triton X-100) using the output file of Mikrowin2000 software (Mikrotek). Further analysis was done in Graphpad Prism 5.
In order to pharmacologically characterize Trica5-HT1, we used CHO-WTA11 cells stably expressing apoaequorin and the promiscuous Gα16 subunit. […] The dose-response relationship for 5-HT and these synthetic agonists was examined at concentrations ranging from 1 pM to 1 mM (Figure 3B). […] Since the efficacy achieved by any agonist depends on the number of receptors expressed, we measured a dose-response curve for 5-HT in every experiment and normalized all agonist effects to the maximum 5-HT response, set at 100% (Figure 3B).

For assay [3], the target named is T1, Trica5-HT1. As to the kind of experiment: Aequorin-luminescence assay in CHO-PAM28 cells (no Gα16), Ca2+ signaling of Trica5-HT1. As to conditions: CHO-PAM28 cells transfected with the receptor. On the procedure:
as §1
Cells were cultured in vitro as monolayers at 37°C, 5% CO2 and high relative humidity, and subcultivated twice a week. […] HEK293 cells were cotransfected with receptor construct (4 µg) and CRE-luciferase construct (2 µg), consisting of the open reading frame of the reporter gene, luciferase, downstream of a multimerized cAMP-response-element (CRE6x), [39]. […]
The transfected CHO cells were detached with phosphate buffered saline (PBS) containing 0.2% EDTA and collected in DMEM/F-12 (without phenol red, with L-glutamine and 10 mM HEPES) (Gibco). The amount of viable cells was determined using the NucleoCounter NC-100+TM (Chemometic). […] Receptor activity was measured as the light emission after adding 50 µl of the cell suspension. […]

Where a name gives a salt, the structure may show the parent alone. Read-outs that look alike come from different tables or passages of the source.

T1 sequence (R9ULB8 entry or part of it): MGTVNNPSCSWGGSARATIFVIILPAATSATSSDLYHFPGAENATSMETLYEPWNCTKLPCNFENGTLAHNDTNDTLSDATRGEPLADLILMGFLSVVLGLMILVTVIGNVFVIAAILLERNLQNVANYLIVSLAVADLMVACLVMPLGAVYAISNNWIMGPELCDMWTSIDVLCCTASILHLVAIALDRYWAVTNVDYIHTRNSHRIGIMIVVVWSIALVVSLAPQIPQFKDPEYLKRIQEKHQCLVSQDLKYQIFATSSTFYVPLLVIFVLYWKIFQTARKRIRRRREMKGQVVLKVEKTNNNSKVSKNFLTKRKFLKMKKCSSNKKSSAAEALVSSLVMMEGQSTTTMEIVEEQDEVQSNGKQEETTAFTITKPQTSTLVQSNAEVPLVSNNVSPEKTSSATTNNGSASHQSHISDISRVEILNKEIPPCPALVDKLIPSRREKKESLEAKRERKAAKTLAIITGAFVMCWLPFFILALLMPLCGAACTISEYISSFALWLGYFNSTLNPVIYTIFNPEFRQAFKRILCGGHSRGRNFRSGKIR

By EC50 is commonly meant the midpoint of the concentration-response curve. `NCCc1c[nH]c2ccc(O)cc12` [5-HT, 5-HT hydrochloride]: the “concentration at which maximal attenuation of cAMP synthesis was attained” value on Trica5-HT1 [1] is on record as not below 10 µM. Also, the “Maximal attenuation of cAMP synthesis” value at Trica5-HT1 [1] (5-HT ≥10 µM) is approximately 40%. For the same compound, the IC50 at Trica5-HT1 [1] (given as negative log value, read-out: logIC50 (mean ± SEM) (converted)) was 83.2 nM; on Trica5-HT1 [1] (read-out: Half maximal reduction of cAMP), 82.7 nM. Also, the “concentration at which the maximal response was attained” value at Trica5-HT1 [2] (CHO-WTA11 cells) is given as not below 10 µM. Moreover, the “response at 100 µM agonist” value at Trica5-HT1 [2] (CHO-WTA11 cells, 100 µM, Figure 3A) was “Significant responses”. Besides, the EC50 on Trica5-HT1 [2] (EC50, receptor activation in CHO-WTA11 cells) is 95 nM; at Trica5-HT1 [2] (Half-maximal activation (EC50), CHO-WTA11 cells), 95.2 nM; at Trica5-HT1 [2] (logEC50 (mean ± SEM), receptor activation in CHO-WTA11 cells, given as negative log values) it was 97.7 nM. Moreover, the “effect on Ca2+ signaling” value at Trica5-HT1 [3] was “No effect”.
